Laboratory results: patent US20080287479A1, “INHIBITORS OF SERINE PALMITOYLTRANSFERASE” (Pfizer Inc, priority 2006, published 2008)
Where a name gives a salt, the structure may show the parent alone. Read-outs that look alike come from different tables or passages of the source.

Target: T1, Serine Palmitoyl Transferase (SPT); microsomes from HEK 293 cells stably transfected with human LCB2 subunit of SPT (Homo sapiens, UniProt O15270)
T1 construct: expressed in transfected cells; host or cells: HEK 293 cells stably transfected with LCB2; microsomal fraction
T1 sequence (O15270 1-562): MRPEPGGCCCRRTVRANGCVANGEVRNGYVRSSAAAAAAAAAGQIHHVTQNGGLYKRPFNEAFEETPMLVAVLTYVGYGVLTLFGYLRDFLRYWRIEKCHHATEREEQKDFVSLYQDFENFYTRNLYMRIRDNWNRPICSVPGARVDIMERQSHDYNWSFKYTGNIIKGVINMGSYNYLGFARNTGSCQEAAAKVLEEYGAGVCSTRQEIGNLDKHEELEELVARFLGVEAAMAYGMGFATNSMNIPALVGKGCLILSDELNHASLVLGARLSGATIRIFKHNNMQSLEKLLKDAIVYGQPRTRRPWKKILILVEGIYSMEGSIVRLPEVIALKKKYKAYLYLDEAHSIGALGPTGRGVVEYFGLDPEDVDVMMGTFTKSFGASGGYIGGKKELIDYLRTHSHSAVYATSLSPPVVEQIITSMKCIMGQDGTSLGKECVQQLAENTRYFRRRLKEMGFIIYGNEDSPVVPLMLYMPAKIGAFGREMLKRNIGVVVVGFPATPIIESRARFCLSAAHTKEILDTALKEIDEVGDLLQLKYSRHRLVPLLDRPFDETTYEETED
T1 sequence (O15269 1-473 partner): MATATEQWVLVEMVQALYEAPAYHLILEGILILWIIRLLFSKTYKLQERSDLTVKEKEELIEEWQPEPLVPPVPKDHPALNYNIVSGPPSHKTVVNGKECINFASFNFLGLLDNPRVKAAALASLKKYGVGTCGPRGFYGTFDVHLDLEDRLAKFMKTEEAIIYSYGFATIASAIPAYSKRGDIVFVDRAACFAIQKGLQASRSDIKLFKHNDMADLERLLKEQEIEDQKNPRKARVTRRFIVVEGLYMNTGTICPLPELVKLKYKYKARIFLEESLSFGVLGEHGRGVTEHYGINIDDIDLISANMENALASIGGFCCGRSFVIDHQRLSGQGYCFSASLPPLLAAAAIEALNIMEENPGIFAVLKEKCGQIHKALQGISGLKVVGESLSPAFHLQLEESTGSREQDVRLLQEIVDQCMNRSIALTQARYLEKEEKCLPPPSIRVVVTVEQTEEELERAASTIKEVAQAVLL
T1 sequence (Q969W0 1-71 partner): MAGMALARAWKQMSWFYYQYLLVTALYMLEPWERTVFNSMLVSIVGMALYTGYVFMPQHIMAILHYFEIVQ
Test: SPT flashplate assay
Type: biochemical

[1] = microsomes of HEK 293 LCB2 cells, 3H-serine and palmitoyl CoA, phospholipid coated flashplate, 18-24 hours at room temperature, read-out: SPTISF IC50

## CC(C)(C)C1CCC(C(=O)CN2CCC(n3c(=O)[nH]c4cc(S(C)(=O)=O)ccc43)CC2)CC1 (stereo not shown) [Example 45, 1-{1-[2-(4-tert-butylcyclohexyl)-2-oxoethyl]piperidin-4-yl}-5-(methylsulfonyl)-1,3-dihydro-2H-benzimidazol-2-one]
[1]
  IC50: 333 nM

## CNC(=O)c1cc2[nH]c(=O)n(C3CCN(CC(=O)C4CCC(F)(F)CC4)CC3)c2cc1F [Example 12, 1-{1-[2-(4,4-difluorocyclohexyl)-2-oxoethyl]piperidin-4-yl}-6-fluoro-N-methyl-2-oxo-2,3-dihydro-1H-benzimidazole-5-carboxamide]
[1]
  IC50: 5.3 nM

## CS(=O)(=O)c1ccc2c(c1)[nH]c(=O)n2C1CCN(CC(=O)C2CCCCC2)CC1 [Example 41, 1-[1-(2-cyclohexyl-2-oxoethyl)piperidin-4-yl]-5-(methylsulfonyl)-1,3-dihydro-2H-benzimidazol-2-one]
[1]
  IC50: 365 nM

## COC1CCC(C(=O)CN2CCC(n3c(=O)[nH]c4cc(S(C)(=O)=O)ccc43)CC2)CC1 (stereo not shown) [Example 43, 1-{1-[2-(4-methoxycyclohexyl)-2-oxoethyl]piperidin-4-yl}-5-(methylsulfonyl)-1,3-dihydro-2H-benzimidazol-2-one]
[1]
  IC50: 301 nM

## CNC(=O)c1cc2[nH]c(=O)n(C3CCN(CC(=O)N4C[C@H]5CCC[C@H]5C4)CC3)c2cc1F [Example 31, 6-fluoro-1-(1-{2-[(3aR,6aS)-hexahydrocyclopenta[c]pyrrol-2(1H)-yl]-2-oxoethyl}piperidin-4-yl)-N-methyl-2-oxo-2,3-dihydro-1H-benzimidazole-5-carboxamide]
[1]
  IC50: 14.7 nM

## CNC(=O)c1cc2[nH]c(=O)n(C3CCN(CC(=O)N4CCC(C)(OC)CC4)CC3)c2cc1F [Example 32, 6-fluoro-1-{1-[2-(4-methoxy-4-methylpiperidin-1-yl)-2-oxoethyl]piperidin-4-yl}-N-methyl-2-oxo-2,3-dihydro-1H-benzimidazole-5-carboxamide]
[1]
  IC50: 26 nM

## CS(=O)(=O)c1ccc2c(c1)[nH]c(=O)n2C1CCN(CC(=O)C2CCC(C(F)(F)F)CC2)CC1 (stereo not shown) [Example 44, 1-{1-[2-(4-trifluoromethylcyclohexyl)-2-oxoethyl]piperidin-4-yl}-5-(methylsulfonyl)-1,3-dihydro-2H-benzimidazol-2-one]
[1]
  IC50: 51.7 nM

## CNC(=O)c1cc2c(cc1F)N(C1CCN(CC(=O)N3C[C@H]4CCC[C@H]4C3)CC1)C(=O)C2 [Example 21, 4-{6-fluoro-5-[(methylamino)carbonyl]-2-oxo-2,3-dihydro-1H-indol-1-yl}-1-{2-[(3aR,6aS)-hexahydrocyclopenta[c]pyrrol-2(1H)-yl]-2-oxoethyl}piperidinium chloride]
SPTISF IC50 (nM)
  IC50: 14.6 nM

## CNC(=O)c1cc2[nH]c(=O)n(C3CCN(CC(=O)N4CC5CCC(CC5)C4)CC3)c2cc1F [Example 30, 1-{1-[2-(3-azabicyclo[3.2.2]non-3-yl)-2-oxoethyl]piperidin-4-yl}-6-fluoro-N-methyl-2-oxo-2,3-dihydro-1H-benzimidazole-5-carboxamide]
[1]
  IC50: 14.5 nM

## CCNC(=O)c1ccc2c(c1)n(C)c(=O)n2C1CCN(CC(=O)N2CCC(C)(C)CC2)CC1 [Example 33, 1-[2-(4,4-dimethylpiperidin-1-yl)-2-oxoethyl]-4-{5-[(ethylamino)carbonyl]-3-methyl-2-oxo-2,3-dihydro-1H-benzimidazol-1-yl}piperidinium chloride]
[1]
  IC50: 59.1 nM

## CNC(=O)c1cc2[nH]c(=O)n(C3CCN(CC(=O)N4CCC(C)(C)CC4)CC3)c2cc1F [Example 26, 1-[2-(4,4-dimethylpiperidin-1-yl)-2-oxoethyl]-4-{6-fluoro-5-[(methylamino)carbonyl]-2-oxo-2,3-dihydro-1H-benzimidazol-1-yl}piperidinium chloride]
[1]
  IC50: 7.5 nM

## CNC(=O)c1cc2[nH]c(=O)n(C3CCN(CC(=O)C4CCC(C(F)(F)F)CC4)CC3)c2cc1F (stereo not shown) [Example 15, 6-fluoro-N-methyl-2-oxo-1-(1-{2-oxo-2-[4(trifluoromethyl)cyclohexyl]ethyl}piperidin-4-yl)-2,3-dihydro-1H-benzimidazole-5-carboxamide]
[1]
  IC50: 9.5 nM

## CCc1ccc(C(=O)CN2CCC(n3c(=O)[nH]c4cc(C(=O)NC)c(F)cc43)CC2)cc1 [Example 9, 1-[2-(4-ethylphenyl)-2-oxoethyl]-4-{6-fluoro-5-[(methylamino)carbonyl]-2-oxo-2,3-dihydro-1H-benzimidazol-1-yl}piperidinium chloride]
SPTISF IC50 (nM)
  IC50: 6.2 nM

## CNC(=O)c1ccc2c(c1)CC(=O)N2C1CCN(CC(=O)N2CCC3(CC2)CC3)CC1 [Example 25, 1-[2-6-azaspiro[2.5]oct-6-yl)-2-oxoethyl]-4-{5-[(methylamino)carbonyl]-2-oxo-2,3-dihydro-1H-indol-1-yl}piperidinium chloride]
SPTISF IC50 (nM)
  IC50: 2.64 nM

## CC1(C)CCN(C(=O)CN2CCC(n3c(=O)[nH]c4cc(S(C)(=O)=O)ccc43)CC2)CC1 [Example 40, 1-{1-[2-(4,4-dimethylpiperidin-1-yl)-2-oxoethyl]piperidin-4-yl}-5-(methylsulfonyl)-1,3-dihydro-2H-benzimidazol-2-one hydrochloride]
[1]
  IC50: 12.9 nM

## CNC(=O)c1ccc2c(c1)CC(=O)N2C1CCN(CC(=O)N2CCC(C)(C)CC2)CC1 [Example 23, 1-[2-(4,4-dimethylpiperidin-1-yl)-2-oxoethyl]-4-{5-[(methylamino)carbonyl]-2-oxo-2,3-dihydro-1H-indol-1-yl}piperidinium chloride]
SPTISF IC50 (nM)
  IC50: 8.4 nM

## CNC(=O)c1ccc2c(c1)CC(=O)N2C1CCN(CC(=O)N2CCC(C)(OC)CC2)CC1 [Example 19, 1-[2-(4-methoxy-4-methylpiperidin-1-yl)-2-oxoethyl]-4-{5-[(methylamino)carbonyl]-2-oxo-2,3-dihydro-1H-indol-1-yl}piperidinium chloride]
SPTISF IC50 (nM)
  IC50: 18.7 nM

## CC1(C)CCN(C(=O)CN2CCC(n3c(=O)[nH]c4cc(S(C)(=O)=O)ccc43)CC2)CC1 [Example 39, 1-{1-[2-(4,4-dimethylpiperidin-1-yl)-2-oxoethyl]piperidin-4-yl}-5-(methylsulfonyl)-1,3-dihydro-2H-benzimidazol-2-one]
[1]
  IC50: 47.9 nM

## C=C1CCN(C(=O)CN2CCC(n3c(=O)[nH]c4cc(C(=O)NC)c(F)cc43)CC2)CC1 [Example 29, 6-fluoro-N-methyl-1-{1-[2-(4-methylonepiperidin-1-yl)-2-oxoethyl]piperidin-4-yl}-2-oxo-2,3-dihydro-1H-benzimidazole-5-carboxamide]
[1]
  IC50: 9.4 nM

## CCC1(C)CCN(C(=O)CN2CCC(n3c(=O)[nH]c4cc(C(=O)NC)c(F)cc43)CC2)CC1 [Example 27, 1-{1-[2-(4-ethyl-4-methylpiperidin-1-yl)-2-oxoethyl]piperidin-4-yl}-6-fluoro-N-methyl-2-oxo-2,3-dihydro-1H-benzimidazole-5-carboxamide]
[1]
  IC50: 6 nM

## CNC(=O)c1cc2[nH]c(=O)n(C3CCN(CC(=O)C4CCC(C)CC4)CC3)c2cc1F (stereo not shown) [Example 13, 6-fluoro-N-methyl-1-{1-[2-(4-methylcyclohexyl)-2-oxoethyl]piperidin-4-yl}-2-oxo-2,3-dihydro-1H-benzimidazole-5-carboxamide]
[1]
  IC50: 6 nM

## CNC(=O)c1cc2[nH]c(=O)n(C3CCN(CC(=O)N4CCC5(CC4)CC5)CC3)c2cc1F [Example 28, 1-{1-[2-(6-azaspiro[2.5]oct-6-yl)-2-oxoethyl]piperidin-4-yl}-6-fluoro-N-methyl-2-oxo-2,3-dihydro-1H-benzimidazole-5-carboxamide]
[1]
  IC50: 12.9 nM

## CNC(=O)c1cc2[nH]c(=O)n(C3CCN(CC(=O)C4CCC(C(C)(C)C)CC4)CC3)c2cc1F (stereo not shown) [Example 14, 1-{1-[2-(4-tert-butylcyclohexyl)-2-oxoethyl]piperidin-4-yl}-6-fluoro-N-methyl-2-oxo-2,3-dihydro-1H-benzimidazole-5-carboxamide]
[1]
  IC50: 106 nM

## CNC(=O)c1cc2c(cc1F)N(C1CCN(CC(=O)N3CCC(C)(C)CC3)CC1)C(=O)C2 [Example 22, 1-[2-(4,4-dimethylpiperidin-1-yl)-2-oxoethyl]-4-{6-fluoro-5-[(methylamino)carbonyl]-2-oxo-2,3-dihydro-1H-indol-1-yl}piperidinium chloride]
SPTISF IC50 (nM)
  IC50: 10.6 nM

## O=C(CN1CCC(n2c(=O)[nH]c3cc(-c4noc(=O)[nH]4)ccc32)CC1)c1ccc(Cl)cc1 [Example 37, 1-{1-[2-(4-chlorophenyl)-2-oxoethyl]piperidin-4-yl}-5-(5-oxo-4,5-dihydro-1,2,4-oxadiazol-3-yl)-1,3-dihydro-2H-benzimidazol-2-one]
SPTISF IC50 (nM)
  IC50: 1.68 nM
